Data from ChEMBL document CHEMBL4483862, “Open-source discovery of chemical leads for next-generation chemoprotective antimalarials” (2018).

Tested on: Plasmodium berghei
Test: Luciferase/luciferin-expressing antifolate-resistant parasites were used to infect a culture of HepG2 cells that were pre-incubated with compounds. Infected hepatocytes emit light due to the luciferase reaction. Assay results are presented as the percent inhibition of light emission compared to control. […]
Type: functional
Conditions: sporozoite; for IC90: read-out: LUCIFERASE INFECTION ASSAY - IC90

Row | SMILES | IC90 [µM] | also measured
1 | O=C1C=CC(=O)N1c1cc(Cl)cc(Cl)c1 | > 13.6 | IC50 (FFLUC_HILL_SLOPE 11.6, FFLUC_R_SQUARED 0.448, PBLUC_HILL_SLOPE 9.84, PBLUC_R_SQUARED 0.0939, read-out: LUCIFERASE INFECTION ASSAY - IC50): > 13.6 µM
2 | c1coc(-c2cn3c(-c4ccsc4)cnc3cn2)c1 | > 12.3 | IC50 (FFLUC_HILL_SLOPE 11.6, FFLUC_R_SQUARED 0.514, read-out: LUCIFERASE INFECTION ASSAY - IC50): > 12.3 µM
3 | Cc1ccc2c(c1)C(=O)C(=O)N2CCN1CCCCC1 | > 12.1 | IC50 (FFLUC_HILL_SLOPE 11.5, FFLUC_R_SQUARED 0.31, read-out: LUCIFERASE INFECTION ASSAY - IC50): > 12.1 µM
4 | CC(C)(C)c1ccc(OCc2nc(=O)cc(Nc3ccccc3Cl)[nH]2)cc1 | > 8.6 | IC50 (FFLUC_HILL_SLOPE 11.4, FFLUC_R_SQUARED 0.169, HEPG2TOX_HILL_SLOPE 0.949, HEPG2TOX_R_SQUARED 0.863, read-out: LUCIFERASE INFECTION ASSAY - IC50): > 8.6 µM
5 | CCCCCCN(C(=O)CC(NC(=O)c1ccccc1)c1ccccc1)c1nc2ccccc2s1 (configuration not stated) | 9.24 | IC50 (FFLUC_HILL_SLOPE 11.5, FFLUC_R_SQUARED 0.371, PBLUC_HILL_SLOPE 30.2, PBLUC_R_SQUARED 0.437, read-out: LUCIFERASE INFECTION ASSAY - IC50): 8.6 µM
6 | O=C(/C(=C/c1ccc(F)cc1)c1ccc(-c2ccccc2)cc1)N1CCN(c2ccccc2Cl)CC1 | > 10 | IC50 (FFLUC_HILL_SLOPE 11.6, FFLUC_R_SQUARED 0.516, HEPG2TOX_HILL_SLOPE 7.73, HEPG2TOX_R_SQUARED 0.736, read-out: LUCIFERASE INFECTION ASSAY - IC50): > 10 µM
7 | N#C/C(=C\Nc1ncccn1)S(=O)(=O)c1ccccc1Cl | > 10.3 | IC50 (FFLUC_HILL_SLOPE 11.3, FFLUC_R_SQUARED 0.831, read-out: LUCIFERASE INFECTION ASSAY - IC50): > 10.3 µM
8 | COc1ccc2c(c1)/C(=N/NC(=O)c1ccc(CSc3ccc(Cl)cc3)cc1)C(=O)N2 | > 10 | IC50 (FFLUC_HILL_SLOPE 11.4, FFLUC_R_SQUARED 0.124, PBLUC_HILL_SLOPE 3.43, PBLUC_R_SQUARED 0.087, read-out: LUCIFERASE INFECTION ASSAY - IC50): 6.03 µM
9 | CSc1ncccc1C(=O)Nc1nc(-c2ccc3ccccc3c2)cs1 | > 10 | IC50 (FFLUC_HILL_SLOPE 11.5, FFLUC_R_SQUARED 0.449, read-out: LUCIFERASE INFECTION ASSAY - IC50): > 10 µM
10 | CCNC(=O)C(C)Nc1ncnc2scc(-c3ccc(OC)cc3)c12 (configuration not stated) | 9.59 | IC50 (FFLUC_HILL_SLOPE 11.3, FFLUC_R_SQUARED 0.625, HEPG2TOX_HILL_SLOPE 3.17, HEPG2TOX_R_SQUARED 0.973, PBLUC_HILL_SLOPE 4.87, PBLUC_R_SQUARED 0.647, read-out: LUCIFERASE INFECTION ASSAY - IC50): 6.11 µM
11 | C=CCOc1ccccc1CN(c1ccc2c(c1)OCCO2)S(=O)(=O)c1cccs1 | > 10 | IC50 (FFLUC_HILL_SLOPE 11.5, FFLUC_R_SQUARED 0.0724, read-out: LUCIFERASE INFECTION ASSAY - IC50): > 10 µM
12 | Cc1cnc(NC(=O)Nc2cccc(C(F)(F)F)c2)s1 | 3.82 | IC50 (FFLUC_HILL_SLOPE 11.7, FFLUC_R_SQUARED 0.144, HEPG2TOX_HILL_SLOPE 3.17, HEPG2TOX_R_SQUARED 0.951, PBLUC_HILL_SLOPE 13.6, PBLUC_R_SQUARED 0.664, read-out: LUCIFERASE INFECTION ASSAY - IC50): 3.25 µM
13 | CC(C)c1ccc(-c2csc(NC(=O)CCn3cnc([N+](=O)[O-])c3)n2)c(C(C)C)c1 | 8.21 | IC50 (FFLUC_HILL_SLOPE 11.6, FFLUC_R_SQUARED 0.59, HEPG2TOX_HILL_SLOPE 11.1, HEPG2TOX_R_SQUARED 0.951, PBLUC_HILL_SLOPE 3.89, PBLUC_R_SQUARED 0.436, read-out: LUCIFERASE INFECTION ASSAY - IC50): 4.67 µM
14 | CCC(=O)c1cc(Br)ccc1OC(=O)Cc1coc2cc(C)c(C)cc12 | 8.33 | IC50 (FFLUC_HILL_SLOPE 11.7, FFLUC_R_SQUARED 0.164, HEPG2TOX_HILL_SLOPE 5.81, HEPG2TOX_R_SQUARED 0.234, PBLUC_HILL_SLOPE 5.23, PBLUC_R_SQUARED 0.568, read-out: LUCIFERASE INFECTION ASSAY - IC50): 5.48 µM
15 | Cc1nnc(S(=O)(=O)CC(=O)N2CCc3ccccc32)n1C | > 10 | IC50 (FFLUC_HILL_SLOPE 11.6, FFLUC_R_SQUARED 0.688, read-out: LUCIFERASE INFECTION ASSAY - IC50): > 10 µM
16 | COc1ccccc1/C=C(/C(=O)OC(C(=O)c1c[nH]c2ccccc12)c1ccccc1)c1ccccc1 (configuration not stated) | > 10 | IC50 (FFLUC_HILL_SLOPE 11.3, FFLUC_R_SQUARED 0.353, PBLUC_HILL_SLOPE 1.04, PBLUC_R_SQUARED 0.705, read-out: LUCIFERASE INFECTION ASSAY - IC50): 3.6 µM

Row | SMILES | IC90 [µM] | also measured
17 | Cc1cc(C)c(C2C3=C(Nc4c2c(C)nn4-c2ccccn2)c2ccccc2C3=O)c(C)c1 (configuration not stated) | > 10 | IC50 (FFLUC_HILL_SLOPE 11.5, FFLUC_R_SQUARED 0.374, PBLUC_HILL_SLOPE 1.59, PBLUC_R_SQUARED 0.668, read-out: LUCIFERASE INFECTION ASSAY - IC50): 5.07 µM
18 | O=C(Nc1cccc(Cl)c1)C1CCN(c2ccc(C(F)(F)F)cn2)CC1 | > 8.6 | IC50 (FFLUC_HILL_SLOPE 11.3, FFLUC_R_SQUARED 0.5, read-out: LUCIFERASE INFECTION ASSAY - IC50): > 8.6 µM
19 | CCOc1ccc(C(C)=O)cc1Cn1cnc2c(cnn2-c2ccccc2)c1=O | > 10 | IC50 (FFLUC_HILL_SLOPE 11.6, FFLUC_R_SQUARED 0.166, HEPG2TOX_HILL_SLOPE 1.94, HEPG2TOX_R_SQUARED 0.895, read-out: LUCIFERASE INFECTION ASSAY - IC50): > 10 µM
20 | CN(C)S(=O)(=O)c1ccc(OCCOC(=O)c2c3c(nn2-c2ccccc2)CCCC3)cc1 | > 10 | IC50 (FFLUC_HILL_SLOPE 11.3, FFLUC_R_SQUARED 0.368, read-out: LUCIFERASE INFECTION ASSAY - IC50): > 10 µM
21 | O=C(Cc1coc2ccc3ccccc3c12)Nc1cc(Cl)ccc1N1CCOCC1 | > 10 | IC50 (FFLUC_HILL_SLOPE 11.6, FFLUC_R_SQUARED 0.426, read-out: LUCIFERASE INFECTION ASSAY - IC50): > 10 µM
22 | CC(C)(C)c1cc(-c2cc(C(F)(F)F)[nH]n2)c2c(c1)C(C)(C)CC2 | > 9.81 | IC50 (FFLUC_HILL_SLOPE 11.7, FFLUC_R_SQUARED 0.064, read-out: LUCIFERASE INFECTION ASSAY - IC50): > 9.81 µM
23 | Cc1ccc2nc(NC(=O)c3ccc(Cl)cc3Cl)c(C(=O)NC3CCCC3)n2c1 | 1.13 | IC50 (FFLUC_HILL_SLOPE 11.5, FFLUC_R_SQUARED 0.0941, HEPG2TOX_HILL_SLOPE 0.896, HEPG2TOX_R_SQUARED 0.951, PBLUC_HILL_SLOPE 3.11, PBLUC_R_SQUARED 0.82, read-out: LUCIFERASE INFECTION ASSAY - IC50): 0.559 µM
24 | CSc1nnc(Sc2ncc([N+](=O)[O-])s2)s1 | > 11.3 | IC50 (FFLUC_HILL_SLOPE 11.6, FFLUC_R_SQUARED 0.224, HEPG2TOX_HILL_SLOPE 8.93, HEPG2TOX_R_SQUARED 0.0924, PBLUC_HILL_SLOPE 12.6, PBLUC_R_SQUARED 0.322, read-out: LUCIFERASE INFECTION ASSAY - IC50): 10 µM
25 | CCOc1ccc(S(=O)(=O)Nc2cc(Sc3ccc(C)cc3)c(O)c3ccccc23)cc1 | > 10 | IC50 (FFLUC_HILL_SLOPE 11.6, FFLUC_R_SQUARED 0.0239, HEPG2TOX_HILL_SLOPE 1.78, HEPG2TOX_R_SQUARED 0.0588, PBLUC_HILL_SLOPE 15.2, PBLUC_R_SQUARED 0.324, read-out: LUCIFERASE INFECTION ASSAY - IC50): 9.98 µM
26 | CCCc1c(NC(=O)Nc2cc(C(F)(F)F)cc(C(F)(F)F)c2)cnn1-c1ccccc1 | 3.79 | IC50 (FFLUC_HILL_SLOPE 11.3, FFLUC_R_SQUARED 0.657, HEPG2TOX_HILL_SLOPE 5.77, HEPG2TOX_R_SQUARED 0.944, PBLUC_HILL_SLOPE 9.21, PBLUC_R_SQUARED 0.384, read-out: LUCIFERASE INFECTION ASSAY - IC50): 2.99 µM
27 | Cc1nc(SC(C)C(=O)c2c[nH]c3ccccc23)c2c(=O)n(C)c(=O)n(CC(C)C)c2n1 (configuration not stated) | > 10 | IC50 (FFLUC_HILL_SLOPE 11.3, FFLUC_R_SQUARED 0.363, PBLUC_HILL_SLOPE 2.42, PBLUC_R_SQUARED 0.455, read-out: LUCIFERASE INFECTION ASSAY - IC50): 7.35 µM
28 | CCN(CC)S(=O)(=O)c1cccc(-c2nnc(SCC(=O)N3CCC(c4ccccc4)=N3)n2Cc2ccccc2)c1 | > 10 | IC50 (FFLUC_HILL_SLOPE 11.4, FFLUC_R_SQUARED 0.285, PBLUC_HILL_SLOPE 0.735, PBLUC_R_SQUARED 0.117, read-out: LUCIFERASE INFECTION ASSAY - IC50): > 10 µM
29 | CCN(Cc1ccccc1)c1nc2ccccc2nc1NS(=O)(=O)c1cc([N+](=O)[O-])ccc1C | > 10 | IC50 (FFLUC_HILL_SLOPE 11.4, FFLUC_R_SQUARED 0.293, HEPG2TOX_HILL_SLOPE 1.92, HEPG2TOX_R_SQUARED 0.959, PBLUC_HILL_SLOPE 2.98, PBLUC_R_SQUARED 0.638, read-out: LUCIFERASE INFECTION ASSAY - IC50): 7.87 µM
30 | O=C(Nc1ncc(Cc2cccc(C(F)(F)F)c2)s1)c1ccc(-n2ccnc2)nc1 | 7.33 | IC50 (FFLUC_HILL_SLOPE 11.4, FFLUC_R_SQUARED 0.309, HEPG2TOX_HILL_SLOPE 1.14, HEPG2TOX_R_SQUARED 0.957, PBLUC_HILL_SLOPE 2.81, PBLUC_R_SQUARED 0.544, read-out: LUCIFERASE INFECTION ASSAY - IC50): 3.35 µM
31 | CCN(CC)c1nc(N)c2c(N)nc3c(c2c1C#N)CC(=O)N3c1cc(Cl)cc(Cl)c1 | > 10 | IC50 (FFLUC_HILL_SLOPE 11.5, FFLUC_R_SQUARED 0.738, PBLUC_HILL_SLOPE 1.44, PBLUC_R_SQUARED 0.624, read-out: LUCIFERASE INFECTION ASSAY - IC50): 4.18 µM
